Test results: patent US7037901B1, “Radiosensitization by indolocarbazole derivatives” (priority 2001, dated 2006)

Assays:
[1] = tested on: human breast cancer MCF-7 cells; experiment: Clonogenic survival assay with radiation (radiosensitization) in MCF-7 cells; type: cell-based
Procedure: (§1) Clonogenic Survival Assay. […] 18–24 h prior to experimental studies.
(§2) Colonies consisting of >50 cells were counted.
(§3) Irradiation of Cells. Drug-treated and control cells in medium were irradiated using a cobalt-60 source (Eldorado 8; Theratronics, Canada) at a dose rate of 105 cGy/min.
(§4) Analysis of Survival Curves. Survival curves were corrected for cytotoxicity induced by drug alone treatment. Sensitization enhancement ratios (SERs) and standard deviations for survival curves were determined at 10% cell survival. Each SER was calculated by dividing the radiation dose to induce 10% cell survival in the absence of radiosensitizer with the radiation dose to induce 10% cell survival in the presence of radiosensitizer.
The updated programs developed by Dr. N. Albright (San Rafael, Calif.) (Albright, N., Radiat. Res., 112:331–340 (1987)) were used for curve fitting for MCF-7 cells with the linear quadratic (LQ) and the single hit multi-target (SHMT) models. Both the LQ and SHMT models gave qualitatively good fits. The fit with the SHMT model was used for the present study.

[2] = tested on: human breast cancer MCF-7 cells; experiment: Clonogenic survival assay, drug alone (cytotoxicity) in MCF-7 cells; type: cell-based; settings: 1 μM camptothecin for 1 h, read graphically from FIG. 2
Procedure: as §1, §2

[3] = target: T1, covalent topoisomerase-DNA cross-links in CHO cells (Cricetulus griseus, UniProt Q07050, S505G); experiment: In vivo K+-SDS co-precipitation assay for protein-DNA cross-links; type: cell-based, Chinese hamster; settings: FIG. 5
T1 construct: endogenous in cells; host or cells: Chinese hamster ovary CHO cells
T1 sequence (Q07050 2-767 S505G): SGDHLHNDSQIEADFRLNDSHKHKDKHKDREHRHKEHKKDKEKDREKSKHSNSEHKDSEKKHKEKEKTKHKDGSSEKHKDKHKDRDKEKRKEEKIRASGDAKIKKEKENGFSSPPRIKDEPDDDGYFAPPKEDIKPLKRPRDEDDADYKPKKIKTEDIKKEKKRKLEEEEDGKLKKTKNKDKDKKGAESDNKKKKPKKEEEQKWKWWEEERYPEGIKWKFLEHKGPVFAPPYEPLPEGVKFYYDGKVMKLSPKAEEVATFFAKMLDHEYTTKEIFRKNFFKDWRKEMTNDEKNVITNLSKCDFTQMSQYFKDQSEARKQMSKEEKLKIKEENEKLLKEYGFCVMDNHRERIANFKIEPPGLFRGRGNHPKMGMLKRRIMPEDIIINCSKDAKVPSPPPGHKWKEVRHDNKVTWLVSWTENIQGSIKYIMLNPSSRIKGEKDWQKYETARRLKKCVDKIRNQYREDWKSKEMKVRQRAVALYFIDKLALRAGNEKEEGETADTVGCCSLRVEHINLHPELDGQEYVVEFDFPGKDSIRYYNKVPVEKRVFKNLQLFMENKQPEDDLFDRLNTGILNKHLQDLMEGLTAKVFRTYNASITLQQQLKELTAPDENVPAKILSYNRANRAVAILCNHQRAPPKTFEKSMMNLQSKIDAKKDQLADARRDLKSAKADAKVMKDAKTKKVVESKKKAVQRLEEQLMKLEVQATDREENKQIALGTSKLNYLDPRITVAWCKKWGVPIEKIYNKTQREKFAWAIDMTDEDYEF
Excerpt: In vivo K^+-SDS co-precipitation assay for protein-DNA cross-links. The K^+-SDS co-precipitation assay as described previously (Chen, Y. N., et al., J. Biol. Chem., 265:10073–10080 (1990)) was used to quantify the formation of covalent topoisomerase-DNA cross-links in drug-treated cells.
Briefly, the DNA in logarithmic growing Chinese hamster CHO cells was overnight-labeled in medium containing 1 μCi/ml of [mehtyl-^3H] thymidine. These cells were then trypsinized and diluted in fresh medium before aliquoted into a 24-well plate. After overnight incubation, the labeled cells were treated with various concentrations of drugs for 30 min, washed with phosphate-buffered saline once, and lysed by adding 1 ml of prewarmed lysis solution (1.25% SDS, 5 mM EDTA, 0.4 mg/ml salmon sperm DNA, pH 8.0, 65° C.).
Following shearing chromosomal DNA by passing the lysate through a 19-gauge needle, the sample was transferred to a tube containing 0.25 ml of 325 mM KCl. The sample was vortexed vigorously for 10 s, cooled on ice for 10 min and centrifuged at 3000 rpm for 10 min at 4° C.
The pellet was then resuspended in 1 ml of a wash solution (100 mM KCl, 1 mM EDTA, 0.1 mg/ml salmon sperm DNA, 10 mM Tris-HCl, pH 8.0) and placed at 65° C. for 10 min with occasional mixing. The sample was again cooled on ice for 10 min and centrifuged at 3000 rpm for 10 min at 4° C. After the pellet from each sample was washed again, the pellet was finally resuspended in 0.2 ml of 65° C. water and added to 5 ml of scintillation fluid to determine radioactive counts.
The background precipitable counts were obtained by treating the lysate with proteinase K (400 μg/ml) at 65° C. for 2 h. Data are arithmetic means (±SD) of three determinations, and the background counts have been subtracted.

[4] = tested on: camptothecin-resistant, TOP1 mutant DC3F/C-10 cells
Procedure: Clonogenic Survival Assay. For a typical clonogenic survival experiment, stock cultures of exponentially growing cells were trypsinized, rinsed, and plated (5×10^5 cells per dish for DC3F and DC3F/C-10 cells; 1×10^6 cells for MCF-7 cells) into 100-mm petri dishes and incubated at 37° C. 18–24 h prior to experimental studies.
Following various experimental protocols with drug incubation and irradiation, cells were trypsinized, rinsed, counted, and plated for […] colony formation. Depending on the anticipated survival level, 10^2 to 10^5 cells were plated per dose point. When higher cell numbers were plated, large petri dishes were used to avoid possible cell-density effect (100-mm instead of 60-mm petri dishes for cell number≧5×10^4). Depending on the treatment protocols, an equivalent amount of DMSO was added into each of the control radiation alone dishes (final DMSO concentration <0.1%).
Following seven to fourteen days of incubation, colonies were fixed with methanol/acetic acid (3:1), stained with crystal violet. Colonies consisting of >50 cells were counted. All survival points were done in triplicate, and experiments were conducted a minimum of two times. Error bars shown in the figures represent standard deviations (SD) and are shown when larger than the symbol.
The DC3F/C-10 cell line was selected from the Chinese Hamster lung fibroblast DC3F cell line in the presence of 1 μM of camptothecin (Albright, N., Radiat. Res., 112:331–340 (1987), and Chen, Y. N., J. Biol. Chem., 265:10073–10080 (1990)). […] In an attempt to determine the importance of TOP1 in mediating the cytotoxic and radiosensitizing effects by INDO derivatives, clonogenic survival assays were performed in DC3F and DC3F/C10 cells.

DC3F cells = experiment: Radiosensitization in DC3F cells (clonogenic survival with radiation); type: cell-based, Chinese hamster
Procedure: as §1, §2, §3, §4

[5] = tested on: TOP1 mutant DC3F/C10 cells; experiment: Radiosensitization in DC3F/C10 cells (clonogenic survival with radiation); type: cell-based, Chinese hamster; settings: DC3F/C10 cells
Procedure: as §1, §2, §3, §4

purified human TOP1 = target: T2, purified human TOP1 (Homo sapiens, UniProt P11387); experiment: In vitro drug-stimulated TOP1 cleavage assay (pHOT1 plasmid nicking); type: biochemical; settings: purified human TOP1; FIG. 4, 4C
T2 construct: purchased TopoGEN, Inc. (Columbus, Ohio)
T2 sequence (P11387 1-765): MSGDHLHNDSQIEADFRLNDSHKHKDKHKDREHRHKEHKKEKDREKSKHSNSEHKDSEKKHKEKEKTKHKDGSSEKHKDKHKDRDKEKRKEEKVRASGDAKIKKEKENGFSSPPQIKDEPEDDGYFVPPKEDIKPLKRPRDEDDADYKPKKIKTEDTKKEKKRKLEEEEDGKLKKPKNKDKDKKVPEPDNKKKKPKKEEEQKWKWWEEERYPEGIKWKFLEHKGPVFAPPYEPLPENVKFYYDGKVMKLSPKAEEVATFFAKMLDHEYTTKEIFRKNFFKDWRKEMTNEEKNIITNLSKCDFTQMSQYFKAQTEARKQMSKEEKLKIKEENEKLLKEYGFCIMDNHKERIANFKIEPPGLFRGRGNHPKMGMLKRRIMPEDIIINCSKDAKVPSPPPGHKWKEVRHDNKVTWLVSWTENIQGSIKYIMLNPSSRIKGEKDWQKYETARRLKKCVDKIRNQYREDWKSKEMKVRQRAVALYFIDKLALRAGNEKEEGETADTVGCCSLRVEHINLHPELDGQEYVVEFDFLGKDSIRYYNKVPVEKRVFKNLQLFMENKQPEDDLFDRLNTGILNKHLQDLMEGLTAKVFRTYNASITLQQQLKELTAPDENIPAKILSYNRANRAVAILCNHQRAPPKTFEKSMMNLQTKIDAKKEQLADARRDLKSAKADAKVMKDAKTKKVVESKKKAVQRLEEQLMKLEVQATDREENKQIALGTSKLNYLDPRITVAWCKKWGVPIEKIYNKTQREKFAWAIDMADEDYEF
Procedure: In vitro drug-stimulated TOP1 cleavage assay. Drug-stimulated DNA cleavage assay using purified human TOP1 was performed according to the protocol provided by TopoGEN Inc. (Columbus, Ohio) with modifications.
Briefly, supercoiled pHOT1 plasmid DNA (0.2 μg) was incubated with 1 unit of human TOP1 in cleavage buffer (50 mM Tris, pH 7.8, 50 mM KCl, 10 mM MgCl2, 1 mM dithiothreitol, 1 mM EDTA) in the presence of varying concentrations of the drug under study. Following a 30-min incubation at 37° C., the reactions were terminated by adding SDS to 1.0% and proteinase K to 200 μg/ml. The proteinase K treatment continued at 37° C. for 1 h. The sample was then mixed with loading dye (containing sucrose and bromphenol blue) and separated in 1% agarose gel in 0.08 M Tris-phosphate, 0.008 M EDTA, pH 8.0 buffer at room temperature for 16 h.
The gel was initially stained with ethidium bromide ([…]), washed and photographed under UV light. In order to separate the “nicked” from the “relaxed” DNA population, the gel was further run for 4 h in the presence of ethidium bromide before being photographed again under UV light. The photograph was scanned and the intensity of the nicked DNA of each lane was measured using the ImageJ program obtained from the National Institutes of Health (web site: rsb.info.nih.gov/ij/). The intensity of the nicked band of each lane was plotted after the background intensity (pHOT1+TOP1 lane) was subtracted.

Q: With `CC[C@@]1(O)C(=O)OCc2c1cc1n(c2=O)Cc2cc3ccccc3nc2-1` [Camptothecin, Camptothecin lactone, reference compound] as the compound, how does the “ER (SER per footnote c, sensitization enhancement ratio)” value ([1]; 1 μM camptothecin 1 h before radiation, at 10% survival) read?
A: The value was 1.4.

Q: And the “Dq (width of the shoulder of the radiation survival curve)” value ([1]; SHMT model fit, FIG. 3B)?
A: Its value is “drastically reduced”.

Q: What about the “RT dose (Gy) at 10% survival” value ([1]; pre-treated 1 μM camptothecin 1 h, rinsed, then radiation) of the same compound?
A: The value was 5.0 Gy.

Q: What about the “Percent of cell survival without RT” value [2] of the same compound?
A: Its value is 72 ± 5%.

Q: What about the “Potency in stabilizing DNA-protein crosslinks (rank order)” value [3] of the same compound?
A: The value was “most potent”.

Q: And the “Relative resistance of DC3F/C10 cells to the cytotoxic effect” value ([4]; LD50 of DC3F/C10 divided by LD50 of DC3F, camptothecin 30-min treatment)?
A: Its value is “more than 12 fold”.

Q: And the “RR (relative resistance)” value ([4]; LD50 of DC3F/C-10 cells divided by LD50 of DC3F cells)?
A: The value was over 12.

Q: And the “Radiation Dose (Gy) at 10% Survival” value (DC3F cells; 0.1 μM)?
A: The value was 4.3 Gy.

Q: What about the SER (DC3F cells; 0.1 μM) of the same compound?
A: Its SER is 1.4.

Q: What about the “Radiation Dose (Gy) at 10% Survival” value (DC3F cells; 1.0 μM) of the same compound?
A: Its value is 3.9 Gy.

Q: And the SER (DC3F cells; 1.0 μM)?
A: The SER was 1.5.

Q: What about the “Radiation Dose (Gy) at 10% Survival” value ([5]; 1.0 μM) of the same compound?
A: The value was 5.2 Gy.

Q: And the SER ([5]; 1.0 μM)?
A: Its SER is 1.0.

Q: What about the “Radiation Dose (Gy) at 10% Survival” value ([5]; 10 μM) of the same compound?
A: The value was 4.6 Gy.

Q: What about the SER ([5]; 10 μM) of the same compound?
A: The SER was 1.1.

Q: How did the “Potency in inducing TOP1-mediated DNA cleavage (nicking of pHOT1)” value (purified human TOP1) turn out when `COc1cc([C@@H]2c3cc4c(cc3[C@@H](O[C@@H]3O[C@@H]5CO[C@@H](C)O[C@H]5[C@H](O)[C@H]3O)[C@H]3COC(=O)[C@H]23)OCO4)cc(OC)c1O` [etoposide, reference compound] was run?
A: The value was “no activity in inducing TOP1-mediated nicking of DNA”.
